We go through two molecules from ChEMBL document CHEMBL2331287, “Inhibition of mTOR Kinase and Cancer Treatment” (ACS Med Chem Lett, 2013).

Assay [1] is described as follows: Inhibition of mTORC2 in human PC3 cells assessed as reduction in phosphorylated AKT S473 level after 90 mins by immunofluorescence assay. It counts as cell-based. The note with it: PC-3, 1.5 h.
The target of a further assay is mTORC1 (Homo sapiens, UniProt P42345). Nature of the assay: Inhibition of mTORC1 in human PC3 cells assessed as reduction in phosphorylated 4E-BP1Thr37/46 level after 90 mins by immunofluorescence assay. It counts as cell-based, PC-3.

Take `O=C(c1nnc[nH]1)N1[C@@H]2CC[C@H]1C[C@H](c1nc3c(-c4ccc(-c5ncc[nH]5)nc4)cnn3c3[nH]ccc13)C2`: the IC50 (in assay [1]; at mTORC1) was 1 nM throughout.

For the molecule `Cc1n[nH]c2c1c([C@@H]1C[C@H]3CC[C@@H](C1)N3C(=O)c1nnc[nH]1)nc1c(-c3ccc(-c4ccccc4)nc3)cnn12`, the figures for the 50% inhibitory concentration (IC50) (in assay [1]; at mTORC1) were 1 nM and 100 nM, respectively.
